These results are taken from US20260034119A1, “5-METHOXY-N,N-[…][…], THEIR […], AND METHODS FOR TREATMENT OF NEUROLOGICAL, […], AND SUBSTANCE USE DISORDERS” (priority 2023, published 2026).

One test concerns the target 5-HT1A (Homo sapiens, UniProt P08908). The experiment in a line: BRET signaling assay: 5-HT1A-mediated activation of heterotrimeric Gi1 (TRUPATH, HEK293-T). On the technique in general: BRET reads energy transfer from a luciferase to a nearby fluorophore.
A further test has as its target 5-HT2A (Homo sapiens, UniProt P28223). The experiment in a line: cell-based.
In the next test the target is T1, human 5-HT1A (Homo sapiens, UniProt P08908).
T1 sequence (P08908 1-422): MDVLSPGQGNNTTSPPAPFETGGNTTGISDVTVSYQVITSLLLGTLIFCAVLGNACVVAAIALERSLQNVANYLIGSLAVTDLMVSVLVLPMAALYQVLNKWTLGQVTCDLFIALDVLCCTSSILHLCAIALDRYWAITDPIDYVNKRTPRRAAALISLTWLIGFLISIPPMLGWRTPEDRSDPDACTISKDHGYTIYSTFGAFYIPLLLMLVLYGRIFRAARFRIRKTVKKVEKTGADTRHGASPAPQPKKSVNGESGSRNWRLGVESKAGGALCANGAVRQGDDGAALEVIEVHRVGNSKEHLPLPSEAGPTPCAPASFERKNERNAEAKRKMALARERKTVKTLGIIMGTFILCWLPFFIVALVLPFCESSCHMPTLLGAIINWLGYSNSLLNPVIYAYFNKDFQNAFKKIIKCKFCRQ
Description: cell-based.

“And” between values parts separate entries of the source, which are not always exact repeats. Equal entries are not always repeated. Where two headings read alike, the source gives them in different places.

Sequence of 5-HT2A (P28223 whole entry): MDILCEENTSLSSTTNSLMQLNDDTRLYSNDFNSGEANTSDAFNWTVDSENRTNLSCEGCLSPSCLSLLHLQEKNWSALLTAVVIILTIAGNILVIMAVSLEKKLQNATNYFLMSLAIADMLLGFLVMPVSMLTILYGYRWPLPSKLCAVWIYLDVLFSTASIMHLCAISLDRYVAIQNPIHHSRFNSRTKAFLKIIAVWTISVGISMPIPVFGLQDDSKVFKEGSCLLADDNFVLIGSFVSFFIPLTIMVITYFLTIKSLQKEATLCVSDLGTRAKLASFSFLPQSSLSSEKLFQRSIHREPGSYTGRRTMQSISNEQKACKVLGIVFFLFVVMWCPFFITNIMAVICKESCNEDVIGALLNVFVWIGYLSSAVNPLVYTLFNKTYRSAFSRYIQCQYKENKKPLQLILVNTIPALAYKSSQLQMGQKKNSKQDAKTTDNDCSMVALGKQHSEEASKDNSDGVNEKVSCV

As usually defined, the Emax is the size of the effect at its maximum, as opposed to the concentration needed. Turning to `O=C1CCc2ccc(OCCCCN3CCN(c4cccc(Cl)c4Cl)CC3)cc2N1` [Aripiprazole, aripiprazole, reference compound], the maximal response (Emax) on 5-HT1A (HEK-293T, read-out: Emax, 5-HT1A-mediated activation of Gi1 (BRET)) came out at 77.1%. For the same molecule, the “Efficacy as %5HT 5-HT1A BRET Gi1” value at 5-HT1A (Table 6, commercial ligands) came out at 77.1 %5HT.
The EC50 is the concentration at which the effect is half-maximal. On to `CN(C)CCc1c[nH]c2ccc(O)cc12` [Bufotenine (5-OH-DMT), Bufotenine, reference compound], for which, at 5-HT1A (EC50 (nM), Gi1 BRET, 5-HT1A WT), the midpoint of the response, the EC50, lay at 9.29 nM.
As to `CN(C)CCc1c[nH]c2ccccc12` [Compound 1], at 5-HT2A, the EC50 is 94.4 nM and 93.3 nM.
On human 5-HT1A, `CCN(C)CCc1c[nH]c2ccccc12` [Compound 2] gave an EC50 of 302 nM.
`CC(C)N(C)CCc1c[nH]c2ccccc12` [Compound 3] came in with an EC50 on human 5-HT1A of 1980 nM.
The molecule `CC(C)N(CCc1c[nH]c2ccccc12)C(C)C` [Compound 4] gave an EC50 on human 5-HT1A of 1330 nM.
As for `COc1ccc2[nH]cc(CCN3CCCCC3)c2c1` [Compound 5-MeO-PipT, 5-methoxypiperidinyl-tryptamine], the concentration giving a half-maximal response (EC50) at 5-HT1A (read-out: Gi BRET EC50) was 88.5 nM. At 5-HT1A (relative to 5-MeO-PyrT), the “loss of potency at 5-HT1A” value is on record as around 42 fold.
Take `c1ccc2c(CCN3CCCC3)c[nH]c2c1` [Compound 5]: the EC50 at human 5-HT1A worked out at 19.1 nM.
Same read-out and setting: as for `c1ccc2c(CCN3CCCCC3)c[nH]c2c1` [Compound 6], the figure is 485 nM; as for `C1=CC2CCC1CN2CCc1c[nH]c2ccccc12` (stereo not shown) [Compound 7], 15500 nM.
As for `CCN(CC)CCc1c[nH]c2ccc(OC)cc12` [Compound 11, 5-MeO-DET], on 5-HT1A (Gi BRET EC50), a half-maximal effect (EC50) was put at 37.1 nM.
Regarding `C=CCN(CC=C)CCc1c[nH]c2ccc(OC)cc12` [Compound 17], the EC50 on human 5-HT1A is 4.66 nM.
Regarding `COc1ccc2[nH]cc(CCN3CCCC3C)c2c1` (stereo not shown) [Compound 19], the EC50 on human 5-HT1A was 2.4 nM.
For `COc1ccc2[nH]cc(CCn3ccnc3)c2c1` [Compound 22, 3-(2-(1H-imidazol-1-yl)ethyl)-5-methoxy-1H-indole], a half-maximal effect on human 5-HT1A (EC50) was put at 292 nM.
Turning to `COc1ccc2[nH]cc(CCN3CC=CCC3)c2c1` [Compound 23, 3-(2-(3,6-dihydropyridin-1(2H)-yl)ethyl)-5-methoxy-1H-indole], the EC50 on human 5-HT1A turned out to be 8.77 nM.
As for `COc1ccc2[nH]cc(CCN3C[C@H]4C=C[C@@H]3CC4)c2c1` [Compound 24], the EC50 on human 5-HT1A is 628 nM.
`COc1ccc2[nH]cc(CCN3CC=CC3)c2c1F` [Compound 37, 3-(2-(2,5-dihydro-1H-pyrrol-1-yl)ethyl)-4-fluoro-5-methoxy-1H-indole]: the results for the EC50 at 5-HT2A, on human 5-HT1A and at 5-HT1A (Gi BRET EC50) were 120 nM, 0.00229 nM and 0.22 nM, respectively.
`COc1ccc2[nH]cc(CCN3C[C@H]4C=C[C@@H]3CC4)c2c1F` [Compound 38, (1S,4R)-2-(2-(4-fluoro-5-methoxy-1H-indol-3-yl)ethyl)-2-azabicyclo[2.2.2]oct-5-ene] gave an EC50 on human 5-HT1A of 173 nM.
`CC[C@H]1C[C@@H]2C=C[C@H]1N(CCc1c[nH]c3ccc(OC)c(F)c13)C2` [Compound 39, (1S,4R,7S)-7-ethyl-2-(2-(4-fluoro-5-methoxy-1H-indol-3-yl)ethyl)-2-aza bicyclo[2.2.2]oct-5-ene]: at human 5-HT1A, the EC50 is 47.3 nM and 46.8 nM.
As to `Oc1ccc2[nH]cc(CCN3CCCC3)c2c1F` [Compound 42, 4-fluoro-3-(2-(pyrrolidin-1-yl)ethyl)-1H-indol-5-ol], the EC50 at human 5-HT1A is 0.04 nM and 0.0417 nM.
Consider `COc1ccc2c(c1)c(CCN1CCCC1)cn2C` [Compound 43, 5-methoxy-1-methyl-3-(2-(pyrrolidin-1-yl)ethyl)-1H-indole], for which, at human 5-HT1A, the EC50 came out at 89.1 nM.
As to `COc1ccc2c(c1)c(CCN1CC=CC1)cn2C` [Compound 44, 3-(2-(2,5-dihydro-1H-pyrrol-1-yl)ethyl)-5-methoxy-1-methyl-1H-indole], the EC50 at human 5-HT1A is 209 nM.
Still for that read-out and setting: with `COc1ccc2c(c1)c(CCn1cccc1)cn2C` [Compound 45, 3-(2-(1H-pyrrol-1-yl)ethyl)-5-methoxy-1-methyl-1H-indole] the figure was 6580 nM.
As to `COc1ccc2c(c(CCN3CCCC3)cn2C)c1F` [Compound 46, 4-fluoro-5-methoxy-1-methyl-3-(2-(pyrrolidin-1-yl)ethyl)-1H-indole], the response at human 5-HT1A was half-maximal at 100 nM (EC50).
Consider `COc1ccc2c(c(CCN3CC=CC3)cn2C)c1F` [Compound 47, 3-(2-(2,5-dihydro-1H-pyrrol-1-yl)ethyl)-4-fluoro-5-methoxy-1-methyl-1H-indole], for which the EC50 at human 5-HT1A was determined as 2.74 nM.
Regarding `c1ccc(COc2ccc3[nH]cc(CCN4CCCC4)c3c2)cc1` [Compound 48, 5-(benzyloxy)-3-(2-(pyrrolidin-1-yl)ethyl)-1H-indole], the EC50 on human 5-HT1A turned out to be 33 nM.
As for `Oc1ccc2[nH]cc(CCN3CCCC3)c2c1` [Compound 50, 3-(2-(pyrrolidine-1-yl)ethyl)-1H-indol-5-ol], the EC50 at human 5-HT1A was 0.1 nM and 0.0977 nM.
Take `Oc1ccc2[nH]cc(CCN3C[C@H]4C=C[C@@H]3CC4)c2c1` [Compound 51, 3-(2-((1S,4R)-2-azabicyclo[2.2.2]oct-5-eN-2-yl)ethyl)-1H-indol-5-ol]: at human 5-HT1A, a half-maximal response (EC50) required 149 nM.
On human 5-HT1A, `CCN(C)CCc1c[nH]c2cccc(O)c12` [Compound 53, 4-OH-MET] displayed an EC50 of 769 nM.
`COc1cccc2[nH]cc(CCN(C)C)c12` [Compound 54, 2-(4-methoxy-1H-indol-3-yl)-N,N-dimethylethan-1-amine]: the EC50 at human 5-HT1A stood at 558 nM.
As for `COc1cccc2[nH]cc(CCN3CCCC3)c12` [Compound 55, 4-methoxy-3-(2-(pyrrolidin-1-yl)ethyl)-1H-indole], the EC50 on human 5-HT1A was 164 nM.
Regarding `CN(C)CCc1c[nH]c2cccc(F)c12` [Compound 57, 2-(4-fluoro-1H-indol-3-yl)-N,N-dimethylethan-1-amine], at human 5-HT1A, the EC50 was 87.7 nM.
Turning to `Fc1cccc2[nH]cc(CCN3CCCC3)c12` [Compound 58, 4-fluoro-3-(2-(pyrrolidin-1-yl)ethyl)-1H-indole], at human 5-HT1A, a half-maximal response (EC50) required 16.7 nM.
Molecule `COc1ccc2c(CCN(C)C)c[nH]c2c1` [Compound 60, 2-(6-methoxy-1H-indol-3-yl)-N,N-dimethylethan-1-amine] gave an EC50 on human 5-HT1A of 3240 nM.
Molecule `COc1ccc2c(CCN3CCCC3)c[nH]c2c1` [Compound 61, 6-methoxy-3-(2-(pyrrolidin-1-yl)ethyl)-1H-indole] registered an EC50 at human 5-HT1A of 492 nM.
In the case of `COc1ccc2c(CCN3CC=CC3)c[nH]c2c1` [Compound 62, 3-(2-(2,5-dihydro-1H-pyrrol-1-yl)ethyl)-6-methoxy-1H-indole], a half-maximal effect on human 5-HT1A (EC50) was put at 30.9 nM.
`CN(C)CCc1c[nH]c2cc3c(cc12)OCO3` [Compound 63, 2-(5H-[1,3]dioxolo[4,5-f]indol-7-yl)-N,N-dimethylethan-1-amine]: on human 5-HT1A, the EC50 is 64.4 nM and 64.6 nM.
For `c1[nH]c2cc3c(cc2c1CCN1CCCC1)OCO3` [Compound 64, 7-(2-(pyrrolidin-1-yl)ethyl)-5H-[1,3]dioxolo[4,5-f]indole], on human 5-HT1A, a half-maximal effect (EC50) was put at 3.5 nM.
In turn, `C1=CC2CCC1CN2CCc1c[nH]c2cc3c(cc12)OCO3` (stereo not shown) [Compound 65] gave an EC50 on human 5-HT1A of 9890 nM.
As to `CCC1C[C@@H]2C=C[C@H]1N(CCc1c[nH]c3cc4c(cc13)OCO4)C2` (stereo partly drawn) [Compound 66, 7-(2-((1S,4R)-7-ethyl-2-azabicyclo[2.2.2]oct-5-en-2-yl)ethyl)-5H-[1,3]dioxolo[4,5-f]indole], the midpoint of the response on human 5-HT1A, the EC50, lay at 1690 nM.
The same measure, in the same setting: with `CCN(C)CCc1c[nH]c2ccc(SC)cc12` [Compound 68, N-ethyl-N-methyl-2-(5-(methylthio)-1H-indol-3-yl)ethan-1-amine] the figure was 3.35 nM and 3.31 nM; with `Cc1cccc2c(CCN(C)C)c[nH]c12` [Compound 70, N,N-dimethyl-2-(7-methyl-1H-indol-3-yl)ethan-1-amine], 1210 nM.
